Assay results: ChEMBL document CHEMBL1201862, “PubChem BioAssay data set” (2004)
The source made the active and inactive calls.

Columns and labels:
Hexokinase HKDC1 = biological target: T1, Hexokinase HKDC1 (Homo sapiens, UniProt Q2TB90); assay: HKDC1 hexokinase inhibitors, dose response, biochemical, W721R variant (AID 504729); type: functional
T1 sequence (Q2TB90 whole entry): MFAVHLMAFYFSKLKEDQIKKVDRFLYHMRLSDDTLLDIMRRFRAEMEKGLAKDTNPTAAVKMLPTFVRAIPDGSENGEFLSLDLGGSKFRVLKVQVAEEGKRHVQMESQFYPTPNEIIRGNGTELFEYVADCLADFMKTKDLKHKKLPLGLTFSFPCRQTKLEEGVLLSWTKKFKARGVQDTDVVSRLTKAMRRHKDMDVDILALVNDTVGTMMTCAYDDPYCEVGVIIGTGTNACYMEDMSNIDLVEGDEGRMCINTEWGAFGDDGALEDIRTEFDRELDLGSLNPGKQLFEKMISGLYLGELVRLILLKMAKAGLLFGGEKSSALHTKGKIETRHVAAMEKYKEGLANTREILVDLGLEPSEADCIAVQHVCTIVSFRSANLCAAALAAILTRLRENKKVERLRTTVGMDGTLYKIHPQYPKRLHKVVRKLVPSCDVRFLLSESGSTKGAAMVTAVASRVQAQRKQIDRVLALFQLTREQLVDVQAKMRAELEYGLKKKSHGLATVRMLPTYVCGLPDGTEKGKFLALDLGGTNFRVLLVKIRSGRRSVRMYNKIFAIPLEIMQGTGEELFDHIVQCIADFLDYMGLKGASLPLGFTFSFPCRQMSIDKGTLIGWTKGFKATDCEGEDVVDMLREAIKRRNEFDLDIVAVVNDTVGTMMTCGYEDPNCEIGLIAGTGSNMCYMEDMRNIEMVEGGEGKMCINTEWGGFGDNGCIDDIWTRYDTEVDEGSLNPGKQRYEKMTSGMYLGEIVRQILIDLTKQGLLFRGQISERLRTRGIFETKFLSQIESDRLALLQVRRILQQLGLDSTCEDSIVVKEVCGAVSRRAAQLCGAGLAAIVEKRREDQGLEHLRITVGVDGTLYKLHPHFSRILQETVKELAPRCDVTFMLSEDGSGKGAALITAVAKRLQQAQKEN

Bcl-2-like protein 10 = biological target: T2, Bcl-2-like protein 10 (Homo sapiens, UniProt Q9HD36); assay: displacers of TR3 peptide from Bcl-B, primary screen, selectivity assay for Bfl-1 inhibitor project, biochemical, fluorescence polarization, FITC-TR3 peptide (AID 748);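 also: fluorescence polarization from a fluorescein-labelled TR3 peptide binding purified Bcl-B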
T2 sequence (Q9HD36 whole entry): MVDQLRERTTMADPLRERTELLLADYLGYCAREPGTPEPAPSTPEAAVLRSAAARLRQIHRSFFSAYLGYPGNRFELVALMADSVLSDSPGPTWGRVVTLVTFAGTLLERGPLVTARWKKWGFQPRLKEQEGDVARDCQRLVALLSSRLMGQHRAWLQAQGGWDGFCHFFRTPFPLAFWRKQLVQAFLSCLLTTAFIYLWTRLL

[1] = biological target: Induced myeloid leukemia cell differentiation protein Mcl-1 (Homo sapiens, UniProt Q07820); type: functional
cells [2] = type: functional, cell-based
cells [3] = type: functional, cell-based; remark: listed apart in the source
X-box-binding protein 1 = X-box-binding protein 1 (Homo sapiens, UniProt P17861); type: functional, Cricetulus griseus;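 also: confirmatory dose-response counter-screen serving a CHOP assay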
[4] = biological target: DNA damage-inducible transcript 3 protein (Mus musculus, UniProt P35639); type: functional, Cricetulus griseus
INS1 = assay: beta cell apoptosis inhibitors, cytokine rescue, dose response, luminescence, retest (AID 449756); type: functional, cell-based; settings: Rattus norvegicus;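 also: cell death triggered by IL-1 beta plus TNF-alpha plus IFN-gamma mixture; protective hits raise ATP signal compared with cytokine alone wells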
[5] = microbe, parasite or virus in culture; type: functional; settings: Mycobacterium tuberculosis
[6] = cytotoxicity in HEK-293T cells, dose response, cytotoxicity control for TCR NF-kB inhibitor project, luminescence, T-cell screen hits (AID 489026); type: functional, cell-based;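 also: cells exposed to compound about 14 hours before the viability readout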
Streptokinase A = biological target: T3, Streptokinase A (Streptococcus pyogenes serotype M1, UniProt P10520); assay: S. pyogenes streptokinase expression inhibitors, potency, dose response, plasminogen activation absorbance, OD405 (AID 1914); type: functional, Streptococcus pyogenes M1 GAS;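 also: secreted streptokinase activity via plasminogen activation per viability signal from cell pellet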
T3 sequence (P10520 whole entry): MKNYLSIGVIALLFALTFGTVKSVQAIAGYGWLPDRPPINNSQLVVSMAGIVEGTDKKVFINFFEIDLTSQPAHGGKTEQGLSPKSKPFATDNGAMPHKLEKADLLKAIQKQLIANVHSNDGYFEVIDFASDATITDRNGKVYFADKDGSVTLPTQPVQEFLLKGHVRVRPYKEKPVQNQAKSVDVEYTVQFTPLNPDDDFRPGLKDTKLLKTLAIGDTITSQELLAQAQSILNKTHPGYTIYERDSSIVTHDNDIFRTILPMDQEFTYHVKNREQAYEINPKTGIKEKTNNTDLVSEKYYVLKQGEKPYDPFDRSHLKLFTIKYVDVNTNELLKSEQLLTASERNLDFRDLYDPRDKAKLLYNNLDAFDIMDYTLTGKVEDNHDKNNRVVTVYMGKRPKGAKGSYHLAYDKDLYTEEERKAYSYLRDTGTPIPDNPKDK

[7] = biological target: Neurotensin receptor type 1 (Homo sapiens, UniProt P30989); type: functional;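 also: Image-based confirmatory dose-response assay measuring agonist activity at NTR1; NTR1-expressing U2OS osteosarcoma cells imaged for beta-arrestin GFP spot formation; agonist potency where compounds increase beta-arrestin recruitment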
[8] = inhibitors of firefly luciferase expression or activity, dose response, H4 neuroglioma cells, luminescence (AID 1990); type: functional, cell-based
Melanocortin receptor 4 = Melanocortin receptor 4 (Homo sapiens, UniProt P32245); type: functional, cell-based;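 also: Cell-based assay with luminescence read-out, confirmatory dose-response testing for agonist activity of biased ligands at MC4R; human U2OS cells with tagged receptor and beta-arrestin; potency of agonists that increase receptor coupling to beta-arrestin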
[9] = Luminescence Cell-Based Dose Response HTS to Identify Inhibitors of 5'UTR Stem-Loop Driven Prion Protein mRNA Translation in H4 Neuroglioblastoma Cells. [Related pubchem assays: 1827 (Project Summary), 1813 (Primary HTS)]; type: functional
[10] = inhibitors of SNCA 5'UTR-driven reporter translation, confirmation, H4 neuroglioma cells, luminescence (AID 1988); type: functional, cell-based
[11] = test system: Streptococcus sp. 'group A'; assay: growth inhibition of control SK(-) GAS strain, dose response, counter-screen for streptokinase expression inhibitor project, luminescence, kanamycin, BacTiterGlo, confirmation (AID 1900); type: functional, organism-based
Streptococcus = assay: Group A Streptococcus viability loss, dose response, counter-screen for streptokinase expression inhibitor project, luminescence, BacTiterGlo (AID 1915); type: functional, organism-based;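 also: potency for reduction of bacterial viability or growth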
[12] = growth suppression of PTEN-null colon cells, dose response, cell-based, HCT116 PTEN knockout (AID 1047); type: functional;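 also: HCT116 colon tumor cells with PTEN knocked out; cells exposed to compound for 60 hours before readout; potency for loss of cell viability measured by luminescence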
[13] = growth suppression of beta-catenin-knockout colon cells, dose response, cell-based, HCT116, human colon tumor (AID 1045); type: functional;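 also: HCT116 colon tumor cells with beta catenin knocked out; cells exposed to compound for 60 hours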
[14] = biological target: T4, Heat shock factor protein 1 (Mus musculus, UniProt P38532); assay: inhibition of MG132-induced HSE-luciferase signal, confirmation, cell-based, NIH3T3, luminescence, dose retest (AID 2382); type: functional;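 also: NIH3T3 fibroblasts with HSF1-driven luciferase reporter stressed by proteasome inhibitor MG132; luminescence from HSF1-driven luciferase expression after 8 hours of MG132 stress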
T4 sequence (P38532 whole entry): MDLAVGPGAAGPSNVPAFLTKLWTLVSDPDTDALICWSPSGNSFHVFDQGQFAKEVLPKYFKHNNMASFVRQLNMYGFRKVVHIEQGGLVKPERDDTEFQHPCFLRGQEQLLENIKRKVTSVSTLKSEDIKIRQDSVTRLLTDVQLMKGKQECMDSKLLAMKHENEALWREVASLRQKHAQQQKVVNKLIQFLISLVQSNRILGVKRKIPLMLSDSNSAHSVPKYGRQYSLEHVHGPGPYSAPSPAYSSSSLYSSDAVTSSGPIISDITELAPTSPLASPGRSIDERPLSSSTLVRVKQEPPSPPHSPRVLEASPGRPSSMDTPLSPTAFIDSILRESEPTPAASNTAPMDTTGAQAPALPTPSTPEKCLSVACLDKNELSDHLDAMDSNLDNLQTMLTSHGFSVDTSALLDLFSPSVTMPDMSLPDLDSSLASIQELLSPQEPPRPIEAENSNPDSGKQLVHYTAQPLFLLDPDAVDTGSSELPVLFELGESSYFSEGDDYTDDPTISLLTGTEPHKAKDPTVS

[15] = biological target: T5, Aryl hydrocarbon receptor (Homo sapiens, UniProt P35869); assay: Luminescence-based cell-based high throughput dose response assay for activators of the Aryl Hydrocarbon Receptor (AHR). [Related pubchem assays: 2796 (Primary screen (AHR activators in singlicate)), 2845 (Confirmation screen (AHR activators in triplicate)), 434939 (Counterscreen (PXR activators in triplicate)), 2804 (Summary (AHR activators))]; type: ADME
T5 sequence (P35869 whole entry): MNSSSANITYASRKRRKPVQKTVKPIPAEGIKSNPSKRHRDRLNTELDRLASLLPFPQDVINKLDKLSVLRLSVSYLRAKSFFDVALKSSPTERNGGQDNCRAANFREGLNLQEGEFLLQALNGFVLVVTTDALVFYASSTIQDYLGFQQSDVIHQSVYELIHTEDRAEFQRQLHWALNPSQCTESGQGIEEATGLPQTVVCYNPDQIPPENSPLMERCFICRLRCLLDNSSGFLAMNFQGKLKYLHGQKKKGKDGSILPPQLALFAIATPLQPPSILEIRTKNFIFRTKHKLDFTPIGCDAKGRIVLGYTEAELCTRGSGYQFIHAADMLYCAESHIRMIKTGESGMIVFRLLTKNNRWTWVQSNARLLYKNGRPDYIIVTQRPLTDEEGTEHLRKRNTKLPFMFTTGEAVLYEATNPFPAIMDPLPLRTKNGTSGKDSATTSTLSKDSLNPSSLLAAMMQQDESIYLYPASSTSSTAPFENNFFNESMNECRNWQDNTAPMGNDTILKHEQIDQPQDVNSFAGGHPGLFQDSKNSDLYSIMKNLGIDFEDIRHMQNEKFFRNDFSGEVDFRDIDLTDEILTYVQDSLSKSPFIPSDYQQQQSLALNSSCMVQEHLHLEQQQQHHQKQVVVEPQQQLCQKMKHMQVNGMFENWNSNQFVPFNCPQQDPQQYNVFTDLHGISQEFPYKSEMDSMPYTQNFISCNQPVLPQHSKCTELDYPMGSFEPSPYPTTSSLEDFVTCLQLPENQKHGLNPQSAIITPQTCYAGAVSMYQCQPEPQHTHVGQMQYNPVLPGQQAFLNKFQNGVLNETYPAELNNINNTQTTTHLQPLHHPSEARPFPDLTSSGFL

[16] = HEp-2 cell cytotoxicity, dose response, cytotoxicity control for RSV inhibitor project, HTS (AID 2410); type: functional; settings: human respiratory syncytial virus
[17] = biological target: T6, Oxysterols receptor LXR-beta (Homo sapiens, UniProt P55055); type: functional, cell-based;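 also: agonist activity at LXR measured by a cell-based luminescence readout across a dose range, run as a counterscreen for daf-12 agonists; HEK293 cells with Gal4-LXR fusion and GAL4-driven luciferase reporter; potency for activation of Gal4-LXR reporter so compounds are agonists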
T6 sequence (P55055 whole entry): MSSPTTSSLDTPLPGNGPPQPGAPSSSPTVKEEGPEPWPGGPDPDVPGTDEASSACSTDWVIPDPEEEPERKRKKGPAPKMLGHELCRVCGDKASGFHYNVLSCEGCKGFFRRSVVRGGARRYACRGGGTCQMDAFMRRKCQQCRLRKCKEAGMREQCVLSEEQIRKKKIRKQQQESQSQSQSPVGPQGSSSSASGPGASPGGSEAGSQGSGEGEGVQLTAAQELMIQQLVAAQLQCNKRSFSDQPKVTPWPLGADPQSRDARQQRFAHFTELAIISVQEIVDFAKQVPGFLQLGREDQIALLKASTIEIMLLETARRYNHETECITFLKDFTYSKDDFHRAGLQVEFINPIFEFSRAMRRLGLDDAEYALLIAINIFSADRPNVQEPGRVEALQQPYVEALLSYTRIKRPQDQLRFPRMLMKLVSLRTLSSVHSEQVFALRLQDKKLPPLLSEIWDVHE

Protein skinhead-1 = biological target: T7, Protein skinhead-1 (Caenorhabditis elegans, UniProt P34707); type: functional
T7 sequence (P34707 whole entry): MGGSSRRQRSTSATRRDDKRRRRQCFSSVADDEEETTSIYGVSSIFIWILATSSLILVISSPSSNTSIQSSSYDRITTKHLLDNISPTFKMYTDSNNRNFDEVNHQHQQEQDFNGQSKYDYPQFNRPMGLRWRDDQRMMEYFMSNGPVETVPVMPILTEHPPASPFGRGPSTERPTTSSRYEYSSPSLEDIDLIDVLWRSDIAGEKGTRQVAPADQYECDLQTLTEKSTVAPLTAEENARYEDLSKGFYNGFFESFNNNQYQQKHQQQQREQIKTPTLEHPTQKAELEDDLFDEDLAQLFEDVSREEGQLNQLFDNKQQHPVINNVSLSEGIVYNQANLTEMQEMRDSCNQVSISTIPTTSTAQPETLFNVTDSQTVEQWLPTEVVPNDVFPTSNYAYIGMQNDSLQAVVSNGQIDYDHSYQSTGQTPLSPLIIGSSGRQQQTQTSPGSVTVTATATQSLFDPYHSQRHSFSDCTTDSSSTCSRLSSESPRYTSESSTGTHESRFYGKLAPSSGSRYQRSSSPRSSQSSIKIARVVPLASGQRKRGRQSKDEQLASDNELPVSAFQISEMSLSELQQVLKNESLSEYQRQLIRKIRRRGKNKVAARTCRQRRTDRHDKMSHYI

Sequence of X-box-binding protein 1 (P17861 whole entry): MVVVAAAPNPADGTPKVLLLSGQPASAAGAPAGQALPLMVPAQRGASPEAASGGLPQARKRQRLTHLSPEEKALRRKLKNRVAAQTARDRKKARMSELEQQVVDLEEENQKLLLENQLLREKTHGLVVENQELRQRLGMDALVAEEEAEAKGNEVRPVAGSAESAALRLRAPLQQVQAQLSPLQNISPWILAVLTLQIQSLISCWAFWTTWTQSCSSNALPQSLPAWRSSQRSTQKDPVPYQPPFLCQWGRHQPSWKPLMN
Sequence of DNA damage-inducible transcript 3 protein (P35639 whole entry): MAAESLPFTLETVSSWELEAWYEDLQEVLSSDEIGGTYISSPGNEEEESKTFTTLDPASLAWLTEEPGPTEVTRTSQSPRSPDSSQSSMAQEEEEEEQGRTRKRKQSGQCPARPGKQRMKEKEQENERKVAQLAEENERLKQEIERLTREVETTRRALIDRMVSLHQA
Sequence of Melanocortin receptor 4 (P32245 whole entry): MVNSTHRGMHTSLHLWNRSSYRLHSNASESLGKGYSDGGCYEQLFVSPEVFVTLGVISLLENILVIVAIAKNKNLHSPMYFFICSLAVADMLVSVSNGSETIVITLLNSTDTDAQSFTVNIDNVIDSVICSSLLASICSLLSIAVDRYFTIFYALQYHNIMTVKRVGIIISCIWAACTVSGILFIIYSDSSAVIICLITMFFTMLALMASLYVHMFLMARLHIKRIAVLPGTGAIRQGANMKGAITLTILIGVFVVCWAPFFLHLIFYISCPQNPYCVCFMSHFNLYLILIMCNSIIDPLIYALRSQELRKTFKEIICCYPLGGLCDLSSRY
Sequence of Induced myeloid leukemia cell differentiation protein Mcl-1 (Q07820 whole entry): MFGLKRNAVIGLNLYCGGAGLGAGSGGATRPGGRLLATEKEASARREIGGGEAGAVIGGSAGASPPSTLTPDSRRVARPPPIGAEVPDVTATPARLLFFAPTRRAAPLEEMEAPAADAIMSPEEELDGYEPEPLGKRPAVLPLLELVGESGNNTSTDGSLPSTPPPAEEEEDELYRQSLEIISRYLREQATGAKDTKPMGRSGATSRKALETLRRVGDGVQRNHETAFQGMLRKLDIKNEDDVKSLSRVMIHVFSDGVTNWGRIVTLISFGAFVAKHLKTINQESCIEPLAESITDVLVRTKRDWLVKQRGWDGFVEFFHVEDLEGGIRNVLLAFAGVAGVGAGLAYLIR
Sequence of Neurotensin receptor type 1 (P30989 whole entry): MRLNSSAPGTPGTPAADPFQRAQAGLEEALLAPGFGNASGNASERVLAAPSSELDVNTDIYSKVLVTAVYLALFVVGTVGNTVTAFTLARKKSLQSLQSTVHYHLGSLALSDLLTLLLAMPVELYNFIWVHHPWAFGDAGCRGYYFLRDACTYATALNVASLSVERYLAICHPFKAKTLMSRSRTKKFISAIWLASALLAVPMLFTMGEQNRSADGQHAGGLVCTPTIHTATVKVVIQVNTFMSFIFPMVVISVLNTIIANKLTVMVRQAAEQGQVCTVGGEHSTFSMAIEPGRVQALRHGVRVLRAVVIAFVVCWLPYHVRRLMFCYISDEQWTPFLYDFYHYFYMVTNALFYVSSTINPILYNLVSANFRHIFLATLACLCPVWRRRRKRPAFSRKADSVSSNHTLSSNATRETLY

Cc1cccc(N2C(=O)NC(=O)/C(=C\c3ccc4c(c3)CCCN4Cc3ccccc3)C2=O)c1
IC50 (Hexokinase HKDC1): 27.6 µM (inactive)

COc1cccc(N2CCN(Cc3ccsc3)CC2)c1
IC50 (Bcl-2-like protein 10): > 100 µM (inactive)

Cc1ccc(N=Nc2ccc(O)c(/C=N\NC(=O)c3ccc(N)cc3)c2)cc1C
IC50 [1]: 2.62 µM (active)
EC50 (cells [2]): > 350 µM (not active)
EC50 (cells [3]): > 350 µM (not active)
IC50 (Bcl-2-like protein 10): > 100 µM (inactive)

Clc1ccc(-c2csc(N/N=C/c3cccnc3)n2)c(Cl)c1
Absolute IC50 (XBP1) (X-box-binding protein 1): 10 µM
Absolute IC50 (CHOP) [4]: 10 µM

CC1=NNC(=O)/C1=C\c1cn(-c2ccccc2)nc1-c1ccc(Cl)cc1
AC50 (INS1): 8.09 µM (active)
CC50 [5]: 20.2 µM (active)
IC50 [6]: > 80 µM (inactive)
EC50 (Streptokinase A): 4.83 µM (active)
EC50 [7]: 16.8 µM (active)
EC50 [8]: > 30 µM (inconclusive)
EC50 (Melanocortin receptor 4): > 89.2 µM (inactive)
EC50 [9]: > 60 µM (not active)
EC50 [10]: 7.48 µM (active)
EC50 [11]: 5 µM (active)
EC50 (Streptococcus): 14.5 µM (active)
EC50 [12]: 3.63 µM (active)
EC50 [13]: 3.51 µM (active)
EC50 [14]: 6.61 µM (active)

Clc1ccc(Nc2nc(-c3cccs3)cs2)nc1
Absolute IC50 (XBP1) (X-box-binding protein 1): 10 µM
EC50 [15]: 1.58 µM (active)
CC50 [16]: 8.33 µM (active)
EC50 [17]: > 67.5 µM (inactive)
IC50 (Protein skinhead-1): 13.6 µM (active)
Absolute IC50 (CHOP) [4]: 10 µM
